# What was measured:
# [1] = test system: ICR (CD-1) mice; experiment: In vivo toxicity in mice (SC, IN, IP routes); set-up: Aspartate aminotransferase, AST / Alanine transaminase, ALT / Alkaline phosphatase, ALP / Creatinine / Urea / Total bilirubin: unit not given here; conditions: for Eosinophil / Erythrocytes, RBC / Granulocytes / Hematocrit, HCT / Hemoglobin Hgb / Lymphocytes / Mean corpuscular haemoglobin concentration, MCHC / Mean corpuscular haemoglobin, MCH / Mean corpuscular volume, MCV / Monocytes / White blood cells, WBC / platelet Counts, PLT / Alanine transaminase, ALT / Alkaline phosphatase, ALP / Aspartate aminotransferase, AST / Creatinine / Total bilirubin / Urea: 3 doses (1hr, 12hr, 24hr), RN7-IN9, RN7-IN6 10 mg/kg, day 7, mean±SD, 4 mice; for Alanine transaminase, ALT / Alkaline phosphatase, ALP / Aspartate aminotransferase, AST / Creatinine / Total bilirubin / Urea: serum
# Description: In this study, 4-week old male, pathogen free ICR (CD-1) mice were purchased from InVivos (Lim Chu Kang, Singapore) and used to assess the in vivo toxicity and antibacterial efficacy of the novel peptides, as these animals are by far the most commonly used model for the study of pneumococcal disease ([Chiavolini, Pozzi & Ricci, 2008]). The mice were kept in ventilated polycarbonate cages (12 h light/dark cycle, 20 ± 2 °C and 55% relative humidity). All mice were familiarized for seven days before any experimental procedure and were given unlimited pellets and water ad libitum. All animal experimentations were conducted according to the guidelines approved by Faculty of Medicine Institutional Animal Care and Use Committee (FOM IACUC), University of Malaya (ethics Reference no. : 2013-07-15/MMBTR/SDS).
# In order to evaluate the possible toxic effects correlated to peptides administered in mice, four hybrid peptides RN7-IN10, RN7-IN9, RN7-IN8 and RN7-IN6 were chosen for in vivo toxicity assessment, due to their promising in vitro antibacterial activity ([Jindal et al., 2015]). Mice were separated into four groups (each with four mice) and were injected with respective peptides at 1 h, 12 h, and 24 h (three-dose regimen) via IP, SC, and IN administration routes. The hybrid peptides were first administered at high doses (100 mg/kg for IP route, 100 mg/kg for SC routes and 20 mg/kg for IN route). Any abnormal behavior was recorded and survival of mice was noted as well. In case adverse effects such as high physical stress, severe lethargy, physical inactiveness, and/or death were detected, lower graded doses were given. All the administered mice were monitored for seven days or until death occurred. At day seven post administration, all animals were sacrificed and blood and organs were collected. Untreated mice were used as a control group.
# Mice used to evaluate the in vivo toxicity and antibacterial activity of the hybrid peptides using the subcutaneous (SC) and intranasal (IN) administration routes, were anesthetized using a combination of a standard dose of xylazine (ilium xylazil-20, 10 mg/kg) and ketamine (Narketan®-10, 100 mg/kg) through intraperitoneal (IP) injection. After seven days of treatment, the in vivo toxicity and antibacterial efficacy experiments were ended and the surviving mice were anesthetized. Blood samples for Hematological and biochemical analysis were collected via cardiac puncture using a 25G syringe (BD bioscience, San Jose, CA, USA). Whole blood for heamatological analysis was collected in 500 µl dipotassium EDTA microtainer tubes (BD Bioscience, USA). About 500 µl of blood collected an eppedorff tube and centrifuged at 8000 rpm for 5 min and then the serum was transferred into a new 1.5 ml tube for biochemistry analysis. The mice were then euthanized by cervical dislocation, dissected and the following organs were collected for histopathology evaluation: lung, kidney, brain, liver and spleen.
# For whole blood analysis, the parameters were number of red cells (RBC), number of white cells (WBC), lymphocytes, monocytes, eosinophil, granulocytes, haemoglobin (Hgb), mean corpuscular volume (MCV), hematocrit (HCT), platelet Counts (PLT), Mean corpuscular haemoglobin (MCH) and corpuscular haemoglobin concentration (MCHC). For biochemistry analysis, the parameters were alanine transaminase (ALT), creatinine, alkaline phosphatase (ALP), aspartate aminotransferase (AST), total bilirubin and urea.
# The following organs were collected from all the dissected mice: lung, kidney, brain, spleen, and liver. All tissues were fixed in 10% (v/v) buffered formalin and processed for paraffin embedding. Hematoxylin–eosin (HE) was used to stain the histological sections at the histopathology laboratory, Veterinary Laboratory Service Unit, University Putra Malaysia (UPM).
# [2] = test system: S. pneumoniae; experiment: ATP efflux assay; type: cell-based, Streptococcus pneumoniae; conditions: 1 × 10^7 CFU/ml; peptides 125 µg/ml (RN7-IN7 500 µg/ml); luciferin/luciferase, ATP standard curve; mean ± SD, three independent experiments
# Description: The amount of ATP released from pneumococcal cells incubated with hybrid peptides was measured as described previously, with a slight modification ([Tanida et al., 2006]). The ATP determination kit (Molecular Probes, Eugene, OR, USA) was used to measure the amount of ATP released based on the luciferin/luciferase method according to the manufacturer’s instructions. Briefly, S. pneumoniae were grown overnight on Columbia agar with 5% sheep blood. Bacterial suspensions were spectrophotometrically adjusted to (1 × 10^7 CFU/ml) and incubated with hybrid peptides RN7-IN10, RN7-IN9, RN7-IN8 and RN7-IN6 at 125 µg/ml and with RN7-IN7 at 500 µg/ml. The amount of ATP released form the pneumococcal cells were measured at three time points 1, 2 and 3 h. The samples were then centrifuged at 5,000 rpm for 5 min, and ATP efflux was subsequently estimated using an ATP standard curve. Values were obtained from three independent experiments. Ceftriaxone and erythromycin were used as positive controls.
# [3] = IN, head doses: RN7-IN10, RN7-IN8 20 mg/kg
# [4] = SC, head doses: RN7-IN10, RN7-IN8 20 mg/kg
substance,measurement,setting,value
"FLGGLIKWPWWPWRR-NH2 [RN7-IN8, hybrid peptide of ranalexin (residues 1-7) and indolicidin (residues 6-13)]",Eosinophil,[1]; [3],4.3±3.6%
same,"Erythrocytes, RBC",[1]; [3],8.95±0.53 10^6/mm^3
same,Granulocytes,[1]; [3],52.9±9.54%
same,"Hematocrit, HCT",[1]; [3],44.8±2.9%
same,Hemoglobin Hgb,[1]; [3],14.42 ± 0.76 g/dL
same,Lymphocytes,[1]; [3],45.6±14.31%
same,"Mean corpuscular haemoglobin concentration, MCHC",[1]; [3],32.22 ± 0.4 g/dL
same,"Mean corpuscular haemoglobin, MCH",[1]; [3],16.12 ± 0.33 pg
same,"Mean corpuscular volume, MCV",[1]; [3],50.25±1.25 µm^3
same,Monocytes,[1]; [3],3.22±0.68%
same,"White blood cells, WBC",[1]; [3],3.95±0.54 10^3/mm^3
same,"platelet Counts, PLT",[1]; [3],612±130.37 10^3/mm^3
same,Eosinophil,"[1]; IP, RN7-IN10, RN7-IN8 20 mg/kg",2.34±0.63%
same,"Erythrocytes, RBC","[1]; IP, RN7-IN10, RN7-IN8 20 mg/kg",8.14±0.34 10^6/mm^3
same,Granulocytes,"[1]; IP, RN7-IN10, RN7-IN8 20 mg/kg",53.38±12.35%
same,"Hematocrit, HCT","[1]; IP, RN7-IN10, RN7-IN8 20 mg/kg",42.73±1.66%
same,Hemoglobin Hgb,"[1]; IP, RN7-IN10, RN7-IN8 20 mg/kg",14.55 ± 0.17 g/dL
same,Lymphocytes,"[1]; IP, RN7-IN10, RN7-IN8 20 mg/kg",53.7±8.22%
same,"Mean corpuscular haemoglobin concentration, MCHC","[1]; IP, RN7-IN10, RN7-IN8 20 mg/kg",34.17 ± 1.13 g/dL
same,"Mean corpuscular haemoglobin, MCH","[1]; IP, RN7-IN10, RN7-IN8 20 mg/kg",17.92 ± 0.56 pg
same,"Mean corpuscular volume, MCV","[1]; IP, RN7-IN10, RN7-IN8 20 mg/kg",52.75±0.95 µm^3
same,Monocytes,"[1]; IP, RN7-IN10, RN7-IN8 20 mg/kg",2.77±0.88%
same,"White blood cells, WBC","[1]; IP, RN7-IN10, RN7-IN8 20 mg/kg",4.18±0.36 10^3/mm^3
same,"platelet Counts, PLT","[1]; IP, RN7-IN10, RN7-IN8 20 mg/kg",472.5±100.52 10^3/mm^3
same,maximum IP dose at which no signs of stress or abnormal behavior were evident (non-toxic dose),"[1]; IP, doses at 1 h, 12 h, 24 h, no death up to seven days",20 mg/kg
same,Eosinophil,[1]; [4],2.42±0.61%
same,"Erythrocytes, RBC",[1]; [4],9.17±0.83 10^6/mm^3
same,Granulocytes,[1]; [4],58.62±9.82%
same,"Hematocrit, HCT",[1]; [4],46.15±3.69%
same,Hemoglobin Hgb,[1]; [4],15.82 ± 1.11 g/dL
same,Lymphocytes,[1]; [4],43.85±6.28%
same,"Mean corpuscular haemoglobin concentration, MCHC",[1]; [4],34.38 ± 0.52 g/dL
same,"Mean corpuscular haemoglobin, MCH",[1]; [4],17.32 ± 0.49 pg
same,"Mean corpuscular volume, MCV",[1]; [4],50.25±0.95 µm^3
same,Monocytes,[1]; [4],1.92±0.15%
same,"White blood cells, WBC",[1]; [4],3.47±0.48 10^3/mm^3
same,"platelet Counts, PLT",[1]; [4],445.75±47.21 10^3/mm^3
same,"Alanine transaminase, ALT",[1]; [3],44.5±18.9
same,"Alkaline phosphatase, ALP",[1]; [3],128.5±21.7
same,"Aspartate aminotransferase, AST",[1]; [3],176.3±31.91
same,Creatinine,[1]; [3],40.56±1.74
same,Total bilirubin,[1]; [3],2.21±0.18
same,Urea,[1]; [3],8.89±1.30
same,"Alanine transaminase, ALT","[1]; IP, RN7-IN10, RN7-IN8 20 mg/kg",62.1±23.84
same,"Alkaline phosphatase, ALP","[1]; IP, RN7-IN10, RN7-IN8 20 mg/kg",115.4±34.9
same,"Aspartate aminotransferase, AST","[1]; IP, RN7-IN10, RN7-IN8 20 mg/kg",148.9±21.51
same,Creatinine,"[1]; IP, RN7-IN10, RN7-IN8 20 mg/kg",39.2±3.81
same,Total bilirubin,"[1]; IP, RN7-IN10, RN7-IN8 20 mg/kg",1.98±0.11
same,Urea,"[1]; IP, RN7-IN10, RN7-IN8 20 mg/kg",10.34±2.36
same,"Alanine transaminase, ALT",[1]; [4],50±5.49
same,"Alkaline phosphatase, ALP",[1]; [4],134±8.24
same,"Aspartate aminotransferase, AST",[1]; [4],170.75±14.52
same,Creatinine,[1]; [4],43.4±0.8
same,Total bilirubin,[1]; [4],1.84±0.12
same,Urea,[1]; [4],9.61±3.02
same,ATP released from pneumococcal cells after 1 h,[2],39.03 ± 0.2 pM
same,ATP released from pneumococcal cells after 3 h,[2],20.54 ± 1.03 pM
